For one data set, the system named is gram-positive bacteria. The settings on record: disclosed in U.S. Pat. No. 4,331,803; cited from earlier work.
Data set [1] is described as follows: Solubility of clarithromycin in non-aqueous media on complexation with zinc salt. The data set is classed as physicochemical. The settings on record: molar ratio about 1:0.2 to about 1:2. An excerpt: Clarithromycin and the zinc salt are preferably combined in a molar ratio ranging from about 1:0.2 to about 1:2. This ratio permits the occurrence of effective complexation of the zinc and clarithromycin.

SMILES strings stand for the structures.

Take `CC[C@H]1OC(=O)[C@H](C)[C@@H](O[C@H]2C[C@@](C)(OC)[C@@H](O)[C@H](C)O2)[C@H](C)[C@@H](O[C@@H]2O[C@H](C)C[C@H](N(C)C)[C@H]2O)[C@](C)(OC)C[C@@H](C)C(=O)[C@H](C)[C@@H](O)[C@]1(C)O` [clarithromycin]: the “Antibacterial activity against gram-positive bacteria” value with gram-positive bacteria is reported as “strong antibacterial activity”. The “Solubility of clarithromycin in a non-aqueous media” value in data set [1] is on record as “increases the solubility”.
